Reference: PubChem BioAssay (NCI)
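Interpolation was linear, between the two tested concentrations surrounding the appropriate level; five concentrations were tested over 48 hours in 96-well plates. GI50 marks 50% less growth. The concentration for full growth arrest is given as TGI.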

Key:
Assay in all cases: NCI-60 cell line screen, 48 h
[1] = system: SR leukemia
[2] = system: SN12C renal
[3] = system: MCF7 breast
[4] = system: PC-3 prostate
[5] = system: SNB-19 CNS
[6] = system: IGROV1 ovarian
[7] = system: SF-268 CNS
[8] = system: CCRF-CEM leukemia
[9] = system: SNB-75 CNS
[10] = system: BT-549 breast
[11] = system: U251 CNS
[12] = system: HOP-62 NSCLC
[13] = system: RXF 393 renal
[14] = system: K-562 leukemia
[15] = system: HS 578T breast
[16] = system: MOLT-4 leukemia
[17] = system: HL-60(TB) leukemia
[18] = system: ACHN renal
[19] = system: OVCAR-8 ovarian
[20] = system: LOX IMVI melanoma
[21] = system: RPMI-8226 leukemia
[22] = system: HOP-92 NSCLC
[23] = system: COLO 205 colon
[24] = system: A498 renal
[25] = system: NCI/ADR-RES ovarian
[26] = system: 786-0 renal
[27] = system: SK-MEL-5 melanoma
[28] = system: SK-MEL-2 melanoma
[29] = system: OVCAR-5 ovarian
[30] = system: KM12 colon
[31] = system: NCI-H23 lung
[32] = system: DU-145 prostate
[33] = system: UO-31 renal
[34] = system: MDA-MB-435
[35] = system: SK-OV-3 ovarian
[36] = system: SK-MEL-28 melanoma
[37] = system: MALME-3M melanoma
[38] = system: NCI-H522 lung
[39] = system: HCT-15 colon
[40] = system: OVCAR-4 ovarian
[41] = system: UACC-62 melanoma
[42] = system: A549 NSCLC
[43] = system: UACC-257 melanoma
[44] = system: TK-10 renal
[45] = system: MDA-MB-231 breast
[46] = system: T-47D breast
[47] = system: SW-620 colon
[48] = system: SF-539 CNS
[49] = system: NCI-H226 lung
[50] = system: M14 melanoma
[51] = system: HT29 colon
[52] = system: NCI-H460 lung
[53] = system: SF-295 CNS
[54] = system: CAKI-1 renal
[55] = system: EKVX NSCLC
[56] = system: HCC-2998 colon
[57] = system: HCT-116 colon

CNC(=O)c1c(NC(=O)c2cccc(C(F)(F)F)c2F)sc2c1CCC(=O)C2
GI50 [1]: 112 nM
TGI [1]: > 100000 nM
GI50 [2]: 305 nM
TGI [2]: > 100000 nM
GI50 [3]: 283 nM
TGI [3]: > 100000 nM
GI50 [4]: 110 nM
TGI [4]: > 100000 nM
GI50 [5]: 361 nM
TGI [5]: > 100000 nM
GI50 [6]: 483 nM
TGI [6]: > 100000 nM
GI50 [7]: 357 nM
TGI [7]: > 100000 nM
GI50 [8]: 109 nM
TGI [8]: > 100000 nM
GI50 [9]: 163 nM
TGI [9]: 794 nM
GI50 [10]: 406 nM
TGI [10]: > 100000 nM
GI50 [11]: 259 nM
TGI [11]: > 100000 nM
GI50 [12]: 777 nM
TGI [12]: > 100000 nM
GI50 [13]: 378 nM
TGI [13]: > 100000 nM
GI50 [14]: 174 nM
TGI [14]: > 100000 nM
GI50 [15]: 379 nM
TGI [15]: > 100000 nM
GI50 [16]: 341 nM
TGI [16]: > 100000 nM
GI50 [17]: 275 nM
TGI [17]: > 100000 nM
GI50 [18]: 301 nM
TGI [18]: 1030 nM
GI50 [19]: 349 nM
TGI [19]: > 100000 nM
GI50 [20]: 466 nM
TGI [20]: > 100000 nM
GI50 [21]: 141 nM
TGI [21]: 676 nM
GI50 [22]: 208 nM
TGI [22]: 636 nM

C=CCN(C)S(=O)(=O)/N=C1\NC(=O)NC1=C(Cl)Cl
GI50 [1]: 693 nM
TGI [1]: 6680 nM
GI50 [2]: 1770 nM
TGI [2]: 3290 nM
GI50 [23]: 2020 nM
TGI [23]: 4370 nM
GI50 [24]: 12000 nM
TGI [24]: 24600 nM
GI50 [25]: 2120 nM
TGI [25]: 4910 nM
GI50 [26]: 2390 nM
TGI [26]: 5790 nM
GI50 [3]: 387 nM
TGI [3]: > 100000 nM
GI50 [27]: 2000 nM
TGI [27]: 4210 nM
GI50 [4]: 2350 nM
TGI [4]: 6200 nM
GI50 [28]: 2900 nM
TGI [28]: 7760 nM
GI50 [5]: 2880 nM
TGI [5]: 9290 nM
GI50 [29]: 1690 nM
TGI [29]: 3130 nM
GI50 [6]: 1840 nM
TGI [6]: 3650 nM
GI50 [30]: 437 nM
TGI [30]: 25600 nM
GI50 [31]: 1850 nM
TGI [31]: 3600 nM
GI50 [32]: 4080 nM
TGI [32]: 13600 nM
GI50 [7]: 3170 nM
TGI [7]: 10700 nM
GI50 [33]: 2820 nM
TGI [33]: 11900 nM
GI50 [34]: 1930 nM
TGI [34]: 3860 nM
GI50 [35]: 17000 nM
TGI [35]: 31000 nM
GI50 [36]: 1780 nM
TGI [36]: 3260 nM
GI50 [37]: 1850 nM
TGI [37]: 3580 nM
GI50 [38]: 1970 nM
TGI [38]: 4160 nM
GI50 [39]: 1630 nM
TGI [39]: 3220 nM
GI50 [40]: 1820 nM
TGI [40]: 3360 nM
GI50 [41]: 1750 nM
TGI [41]: 3390 nM
GI50 [42]: 5270 nM
TGI [42]: 24000 nM
GI50 [43]: 3560 nM
TGI [43]: 17000 nM
GI50 [44]: 9070 nM
TGI [44]: > 100000 nM
GI50 [8]: 1940 nM
TGI [8]: 4680 nM
GI50 [9]: 1820 nM
TGI [9]: 13100 nM
GI50 [45]: 1860 nM
TGI [45]: 3420 nM
GI50 [46]: 3250 nM
TGI [46]: > 100000 nM
GI50 [10]: 2100 nM
TGI [10]: 4490 nM
GI50 [47]: 1900 nM
TGI [47]: 3720 nM
GI50 [11]: 1870 nM
TGI [11]: 4050 nM
GI50 [12]: 3280 nM
TGI [12]: 14400 nM
GI50 [13]: 1700 nM
TGI [13]: 3370 nM
GI50 [15]: 3640 nM
TGI [15]: 30100 nM
GI50 [48]: 1790 nM
TGI [48]: 3300 nM
GI50 [16]: 2360 nM
TGI [16]: 5930 nM
GI50 [17]: 2060 nM
TGI [17]: 5310 nM
GI50 [49]: 2090 nM
TGI [49]: 4630 nM
GI50 [18]: 1770 nM
TGI [18]: 3180 nM
GI50 [50]: 1890 nM
TGI [50]: 3730 nM
GI50 [19]: 2330 nM
TGI [19]: 5690 nM
GI50 [51]: 2150 nM
TGI [51]: 4870 nM
GI50 [52]: 2710 nM
TGI [52]: 7100 nM
GI50 [53]: 13600 nM
TGI [53]: 26700 nM
GI50 [54]: 1720 nM
TGI [54]: 3150 nM
GI50 [55]: 1820 nM
TGI [55]: 3640 nM
GI50 [21]: 404 nM
TGI [21]: 9840 nM
GI50 [56]: 1760 nM
TGI [56]: 3430 nM
GI50 [57]: 1840 nM
TGI [57]: 3550 nM
GI50 [22]: 1760 nM
TGI [22]: 3400 nM

O=C(CCC(=O)N1CCOCC1)OCCCCCCSc1ccc([N+](=O)[O-])c2nonc12
GI50 [1]: 239 nM
TGI [1]: 2160 nM
GI50 [2]: 1010 nM
TGI [2]: 2300 nM
GI50 [23]: 1890 nM
TGI [23]: 4590 nM
GI50 [24]: 1850 nM
TGI [24]: 4260 nM
GI50 [25]: 759 nM
TGI [25]: 4440 nM
GI50 [26]: 1400 nM
TGI [26]: 4150 nM
GI50 [3]: 334 nM
TGI [3]: 1920 nM
GI50 [27]: 1700 nM
TGI [27]: 3290 nM
GI50 [4]: 1600 nM
TGI [4]: 4190 nM
GI50 [28]: 2480 nM
TGI [28]: 6680 nM
GI50 [5]: 1610 nM
TGI [5]: 4710 nM
GI50 [29]: 1580 nM
TGI [29]: 3250 nM
GI50 [6]: 1010 nM
TGI [6]: 2240 nM
GI50 [30]: 2700 nM
TGI [30]: 7770 nM
GI50 [31]: 1390 nM
TGI [31]: 3000 nM
GI50 [32]: 1400 nM
TGI [32]: 2710 nM
GI50 [7]: 1650 nM
TGI [7]: 5250 nM
GI50 [33]: 418 nM
TGI [33]: 2260 nM
GI50 [34]: 1160 nM
TGI [34]: 2500 nM
GI50 [35]: 3850 nM
TGI [35]: 16900 nM
GI50 [36]: 1620 nM
TGI [36]: 3110 nM
GI50 [37]: 1150 nM
TGI [37]: 2510 nM
GI50 [38]: 853 nM
TGI [38]: 3930 nM
GI50 [39]: 267 nM
TGI [39]: 1120 nM
GI50 [40]: 1820 nM
TGI [40]: 3800 nM
GI50 [41]: 1010 nM
TGI [41]: 2360 nM
GI50 [42]: 2900 nM
TGI [42]: 12000 nM
GI50 [43]: 1630 nM
TGI [43]: 3660 nM
GI50 [44]: 4100 nM
TGI [44]: 13300 nM
GI50 [8]: 284 nM
TGI [8]: 3850 nM
GI50 [9]: 490 nM
TGI [9]: 17000 nM
GI50 [45]: 1390 nM
TGI [45]: 3080 nM
GI50 [46]: 2030 nM
TGI [46]: 5110 nM
GI50 [10]: 939 nM
TGI [10]: 2170 nM
GI50 [47]: 479 nM
TGI [47]: 2280 nM
GI50 [11]: 640 nM
TGI [11]: 2700 nM
GI50 [12]: 1740 nM
TGI [12]: 4450 nM
GI50 [13]: 574 nM
TGI [13]: 1960 nM
GI50 [14]: 259 nM
TGI [14]: > 100000 nM
GI50 [15]: 1690 nM
TGI [15]: 5990 nM
GI50 [48]: 666 nM
TGI [48]: 1990 nM
GI50 [16]: 410 nM
TGI [16]: 3490 nM
GI50 [17]: 313 nM
TGI [17]: 1620 nM
GI50 [49]: 1440 nM
TGI [49]: 3810 nM
GI50 [18]: 472 nM
TGI [18]: 1680 nM
GI50 [50]: 1320 nM
TGI [50]: 2890 nM
GI50 [19]: 827 nM
TGI [19]: 9250 nM
GI50 [51]: 1010 nM
TGI [51]: 4270 nM
GI50 [52]: 1700 nM
TGI [52]: 3820 nM
GI50 [53]: 2460 nM
TGI [53]: 7210 nM
GI50 [54]: 1520 nM
TGI [54]: 3950 nM
GI50 [55]: 1550 nM
TGI [55]: 3260 nM
GI50 [21]: 401 nM
TGI [21]: 3350 nM
GI50 [56]: 1680 nM
TGI [56]: 3160 nM
GI50 [57]: 410 nM
TGI [57]: 1670 nM
GI50 [22]: 1240 nM
TGI [22]: 2830 nM
